# From patent US4341770A, “Method of controlling ureaplasma infections” (Eli Lilly and Company, priority 1981, dated 1982)
# Tests used:
# [1] = system: Ureaplasma species; settings: background statement; cited from earlier work
# [2] = system: Ureaplasma isolate 779T-3; assay: conventional broth-dilution assay, MIC against Ureaplasma isolate 779T-3; assay type: cell-based
# From the text: (§1) For example, in the conventional broth-dilution assay, OMT had minimal inhibitory concentrations (MIC's) against four isolates of Ureaplasma as shown in Table I.
# [3] = system: Ureaplasma species; assay: Treatment of pneumonia in calves (Example 1): isolation of Ureaplasma from lung tissue; assay type: in vivo
# Description: (§2) OMT was evaluated in calves for the treatment of naturally occurring pneumonia. Calves were purchased and transported to Lilly Research Laboratories, Greenfield, Indiana. The calves were weighed, bled, identified with eartags and allotted into pens soon after arrival. Rectal temperatures were taken and clinical observations were made daily.
# (§3) Calves were put on test at the first signs of respiratory disease which included ocular and nasal discharges, pyrexia and/or depression.
# (§4) Treated calves were injected intramuscularly with OMT in an aqueous propylene glycol vehicle. The treatment doses evaluated were 12.5 mg/kg and 25 mg/kg once a day for five days. Control calves were treated with placebo. There were 10 calves per group. Calves that died were examined at necropsy for lesions indicative of pneumomia. Surviving calves were killed seven days after the last treatment and examined for lesions at necropsy.
# [4] = system: Ureaplasma isolate 763T-2; assay: conventional broth-dilution assay, MIC against Ureaplasma isolate 763T-2; assay type: cell-based
# From the text: as §1
# [5] = system: Ureaplasma isolate 773T-2; assay: conventional broth-dilution assay, MIC against Ureaplasma isolate 773T-2; assay type: cell-based
# From the text: as §1
# [6] = system: Ureaplasma isolate 765T-3; assay: conventional broth-dilution assay, MIC against Ureaplasma isolate 765T-3; assay type: cell-based
# From the text: as §1
# [7] = Prevention of naturally occurring pneumonia in calves with OMT (Example 2); assay type: in vivo; settings: for cumulative mortality: 19 calves per group
# Description: OMT was evaluated in calves for the prevention and control of naturally occurring pneumonia. Calves were purchased and transported to Lilly Research Laboratories, Greenfield, Ind. Soon after arrival the calves were weighed, bled, identified with eartags and allotted into pens. There were 19 calves in the OMT-treated group and 19 calves in the nontreated control group.
# OMT was prepared as an injectable in an aqueous propylene glycol vehicle. The treated calves were each injected subcutaneously with 35 mg/lb (77 mg/kg) of OMT within a day after arrival. At this dose and route of administration, the drug was expected, based on blood level studies, to persist for seven days in the treated calves. The calves were each retreated with the same dose seven days later. Rectal temperatures were taken and clinical observations were made daily. Calves that died were examined at necropsy for lesions indicative of pneumonia.
# [8] = Treatment of naturally occurring pneumonia in calves with OMT (Example 1); assay type: in vivo; settings: for temperature averages of the calves: controls remained above 40° C. for 10 days; for calves that died: six of ten placebo-treated died
# Description: Example one illustrates the useful in vivo activity of OMT against Ureaplasma. In the example OMT (free base) was administered in an aqueous propylene glycol solution, and non-medicated water and feed were provided to the animals ad libitum.
# as §2, §3, §4
# [9] = system: gram-positive bacteria; settings: taught by U.S. Pat. No. 3,459,853; cited from earlier work
# [10] = system: Pasteurella species; assay: Treatment of pneumonia in calves (Example 1): control of Pasteurella; assay type: in vivo
# Description: as §2, §3, §4
# [11] = 25 mg/kg intramuscular once a day for five days
# [12] = 77 mg/kg subcutaneous, repeated after seven days, 14-day observation
# [13] = 12.5 mg/kg intramuscular once a day for five days
compound,measurement,setting,value
CCC[C@@H]1C[C@@H](C(=O)N[C@@H]([C@H]2O[C@H](SC)[C@H](O)[C@@H](O)[C@H]2O)[C@@H](C)O)N(C)C1 [lincomycin],resistance of Ureaplasma species,[1],resistant
"CCC1OC(=O)CC(O)C(C)C(OC2OC(C)C(O)C(N(C)C)C2O)C(CC=O)CC(C)C(=O)C=CC(C)=CC1CO (stereo not drawn) [OMT, 5-O-mycaminosyl tylonolide]",MIC,[2],1.56 µg/mL
same,Ureaplasma species isolated from lung tissue,"[3]; 12.5 mg OMT/kg intramuscular once a day for five days, also isolated with placebo",isolated from lung tissue
same,elimination of the Ureaplasma species from the animals,[3]; [11],eliminated the Ureaplasma species
same,Ureaplasma species isolated from calves,"[3]; 25 mg/kg intramuscular once a day for five days, isolated from lung tissue of placebo calves",not isolated
same,MIC,[4],0.78 µg/mL
same,MIC,[5],1.56 µg/mL
same,MIC,[6],1.56 µg/mL
same,preventing death of calves due to a severe pneumonia,"[7]; 77 mg/kg subcutaneous, repeated after seven days",very effective in preventing death of calves
same,Scours,[7]; [12],less severe
same,nasal and ocular discharges,[7]; [12],less severe
same,average temperatures,"[7]; 77 mg/kg subcutaneous, repeated after seven days, 14-day observation, vs non-medicated controls",lower
same,alertness and condition of calves,"[7]; 77 mg/kg subcutaneous, repeated after seven days, vs controls",more alert and in better condition than the controls
same,cumulative mortality,"[7]; day 1, control 0",0
same,cumulative mortality,"[7]; day 2, control 0",0
same,cumulative mortality,"[7]; day 3, control 0",0
same,cumulative mortality,"[7]; day 4, control 1",0
same,cumulative mortality,"[7]; day 5, control 3",0
same,cumulative mortality,"[7]; day 6, control 5",0
same,cumulative mortality,"[7]; day 7, control 5",0
same,cumulative mortality,"[7]; day 8, control 5",0
same,cumulative mortality,"[7]; day 9, control 9",0
same,cumulative mortality,"[7]; day 10, control 11",0
same,cumulative mortality,"[7]; day 11, control 13",0
same,cumulative mortality,"[7]; day 12, control 14",0
same,cumulative mortality,"[7]; day 13, control 14",2
same,cumulative mortality,"[7]; day 14, control 15",3
same,calves that died with extensive pathologic lesions indicative of severe pneumonia,"[7]; necropsy, 14 of the 15 control calves",3 calves
same,Scours,[8]; [13],reduced
same,ocular discharge,[8]; [13],reduced
same,temperature averages of the calves,[8]; [13],lowered to normal by the second day of treatment
same,calves that died,[8]; [13],two of ten
same,Scours,[8]; [11],reduced
same,ocular discharge,[8]; [11],reduced
same,temperature averages of the calves,[8]; [11],lowered to normal by the second day of treatment
same,calves that died,[8]; [11],two of ten
same,inhibition of gram-positive bacteria,[9],inhibited gram-positive bacteria
same,control of Pasteurella species associated with this pneumonia,[10]; [13],effectively controlled
same,control of Pasteurella species associated with this pneumonia,[10]; [11],effectively controlled
